Results published in US20220289708A1, “SUBSTITUTED N-PHENYL URACILS, SALTS THEREOF AND THEIR USE AS HERBICIDAL AGENTS” (Bayer Aktiengesellschaft, priority 2019, published 2022).

Key:
Experiment in all cases: Post-emergence herbicidal action
Assay type in all cases: in vivo
Lolium rigidum = conditions: application rate 20 g/ha, rated visually after about 3 weeks vs untreated controls
Experimental: (§1) a. Post-Emergence Herbicidal Action and Crop Plant Compatibility Seeds of monocotyledonous and dicotyledonous weeds and crop plants were placed in sandy loam in plastic or wood-fiber pots, covered with soil and cultivated in a greenhouse under controlled growth conditions. 2 to 3 weeks after sowing, the test plants were treated at the one-leaf stage. The compounds of the invention, formulated in the form of wettable powders (WP) or as emulsion concentrates (EC), were then sprayed onto the green parts of the plants as aqueous suspension or emulsion with addition of 0.5% additive at a water application rate of 600 l/ha (converted). After the test plants had been kept in the greenhouse under optimum growth conditions for about 3 weeks, the activity of the preparations was rated visually in comparison to untreated controls. For example, 100% activity=the plants have died, 0% activity=like control plants. Tables A1 to A15 below show the effects of selected compounds of the general formula (I) according to Tables I.1 to I.36 on various harmful plants and at an application rate corresponding to 20 g/ha and less, which were obtained by the experimental procedure mentioned above.

Viola tricolor = conditions: application rate 20 g/ha
Experimental: as §1

Digitaria sanguinalis = conditions: application rate 20 g/ha, rated visually after about 3 weeks vs untreated controls
Experimental: as §1

Avena fatua = conditions: application rate 20 g/ha, rated visually after about 3 weeks vs untreated controls
Experimental: as §1

Setaria viridis = conditions: application rate 20 g/ha, rated visually after about 3 weeks vs untreated controls
Experimental: as §1

Abutilon theophrasti = conditions: application rate 20 g/ha, rated visually after about 3 weeks vs untreated controls
Experimental: as §1

Veronica persica = conditions: application rate 20 g/ha
Experimental: as §1

Echinochloa crus-galli = conditions: application rate 20 g/ha, rated visually after about 3 weeks vs untreated controls
Experimental: as §1

Amaranthus retroflexus = conditions: application rate 20 g/ha, rated visually after about 3 weeks vs untreated controls
Experimental: as §1

Alopecurus myosuroides = conditions: application rate 20 g/ha, rated visually after about 3 weeks vs untreated controls
Experimental: as §1

Matricaria inodora = conditions: application rate 20 g/ha, rated visually after about 3 weeks vs untreated controls
Experimental: as §1

Pharbitis purpurea = conditions: application rate 20 g/ha, rated visually after about 3 weeks vs untreated controls
Experimental: as §1

Polygonum convolvulus = conditions: application rate 20 g/ha
Experimental: as §1

Row | SMILES | Lolium rigidum (efficacy in %) (Lolium rigidum) | Viola tricolor (efficacy in %) (Viola tricolor) | Digitaria sanguinalis (efficacy in %) (Digitaria sanguinalis) | Avena fatua (efficacy in %) (Avena fatua) | Setaria viridis (efficacy in %) (Setaria viridis) | Abutilon theophrasti (efficacy in %) (Abutilon theophrasti) | Veronica persica (efficacy in %) (Veronica persica) | Echinochloa crus-galli (efficacy in %) (Echinochloa crus-galli) | Amaranthus retroflexus (efficacy in %) (Amaranthus retroflexus) | Alopecurus myosuroides (efficacy in %) (Alopecurus myosuroides) | Matricaria inodora (efficacy in %) (Matricaria inodora) | Pharbitis purpurea (efficacy in %) (Pharbitis purpurea) | Polygonum convolvulus (efficacy in %) (Polygonum convolvulus)
1 | Cn1c(C(F)(F)F)cc(=O)n(-c2cc(Oc3cccnc3OCC(=O)OCC3CCCO3)c(Br)cc2F)c1=O (centres unmarked) [I.16-71] | 90% | 100% | 100% | 90% | 100% | 100% | 100% | 100% | 100% | 100% | 100% | 100% | 100%
2 | Cn1c(C(F)(F)F)cc(=O)n(-c2cc(Oc3cccnc3OCC(=O)OCC#N)c(Br)cc2F)c1=O [I.16-176] | 80% | 100% | 100% | 90% | 100% | 100% | 100% | 100% | 100% | 100% | 100% | 100% | 90%
3 | Cn1c(C(F)(F)F)cc(=O)n(-c2cc(Oc3cccnc3OCC(=O)OCC3OCCO3)c(Br)cc2F)c1=O [I.16-424] | 80% | 100% | 100% | 90% | 100% | 100% | 100% | 100% | 100% | 100% | 100% | 100% | 100%
4 | COCCOC(=O)COc1ncccc1Oc1cc(-n2c(=O)cc(C(F)(F)F)n(C)c2=O)c(F)cc1C#N [I.35-1] | 80% | 100% | 100% | 100% | 100% | 100% | 100% | 100% | 100% | 100% | 100% | 100% | 100%
5 | COCCOC(=O)COc1ncc(F)cc1Oc1cc(-n2c(=O)cc(C(F)(F)F)n(C)c2=O)c(F)cc1Cl [I.36-1] | 90% | 100% | 100% | 100% | 100% | 100% | 100% | 100% | 100% | 100% | 100% | 100% | 100%
